Experimental findings from patent publication EP2951180B1, “2,6,7,8 SUBSTITUTED PURINES AS HDM2 INHIBITORS” (Merck Sharp & Dohme Corp., priority 2013, dated 2014) are described below.

The term pIC50 denotes the IC50 on a negative log10 scale, so that one unit is a factor of ten.

The target of the experiment is T1, HDM2 (Homo sapiens, UniProt Q00987).
T1 construct: Thioredoxin (N); made in house; host or cells: E. coli strain BL21(DE3)Rosetta
Description: HDM2 FRET assay (inhibition of binding of FITC labeled p53-pocket peptide to HDM2). The following applies: read-out: FRET IC50. Summed up:
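TR-FRET with 0.5 nM His-tagged recombinant HDM2, 3 nM FITC-labelled p53 peptide and 0.25 nM Tb-anti-His antibody in PBS, 0.01% BSA, 0.01% Tween-20, 0.1% DMSO. IC50 from em520/em495 ratio over 10-point dilutions, 4-parameter logistic fit.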

[1] abbreviates: 0.5 nM HDM2 (residues 17 to 125), 3nM peptide, two hour incubation at room temperature.

pIC50: −log10 of the molar value. Where two headings read alike, the source gives them in different places.

T1 sequence (Q00987 17-125): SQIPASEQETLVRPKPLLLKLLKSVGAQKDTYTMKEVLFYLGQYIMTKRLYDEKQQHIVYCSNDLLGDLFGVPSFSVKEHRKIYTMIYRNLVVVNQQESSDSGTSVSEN

Take `C[C@@H]1OC(=O)N(c2nc3nc(-c4noc(=O)[nH]4)nc(-c4cccc(Cl)c4)c3n2C[C@H]2CC[C@H](C)CC2)[C@@H]1c1ccccc1` [Example 16.9, 3-(6-(3-chlorophenyl)-8-((4R,5S)-5-methyl-2-oxo-4-phenyloxazolidin-3-yl)-7-(((trans)-4-methylcyclohexyl)methyl)-7H-purin-2-yl)-1,2,4-oxadiazol-5(4H)-one]: the pIC50 under setting [1] is 8.52.

Take `C[C@](CO)(Nc1nc2nc(-c3noc(=O)[nH]3)nc(-c3cccc(Cl)c3)c2n1C[C@H]1CC[C@H](C)CC1)c1ccccc1` [Example 16.5, 3-(6-(3-chlorophenyl)-8-(((S)-1-hydroxy-2-phenylpropan-2-yl)amino)-7-(((trans)-4-methylcyclohexyl)methyl)-7H-purin-2-yl)-1,2,4-oxadiazol-5(4H)-one]: the pIC50 under setting [1] is 8.80.

As to `CC(Nc1nc2nc(-c3noc(=O)[nH]3)nc(N[C@H](C)C3CCC3)c2n1Cc1ccc(C(F)(F)F)cc1)c1ccccn1` (stereo partly drawn) [Example 9.75, 3-(6-{[(1R)-1-cyclobutylethyl]amino}-8-[(1-pyridin-2-ylethyl)amino]-7-[4-(trifluoromethyl)benzyl]-7H-purin-2-yl)-1,2,4-oxadiazol-5(4H)-one], the pIC50 (Table 9) was 8.09.

Take `Cc1cccc(-c2nc3nc(C(=O)O)nc(N[C@H](C)C4CC4)c3n2Cc2ccc(Br)cc2)c1` [Example 6.5, 7-(4-bromobenzyl)-6-{[(1R)-1-cyclopropylethyl]amino}-8-(3-methylphenyl)-7H-purine-2-carboxylic acid]: the pIC50 (Table 6) was 6.63.

`C[C@@H](Nc1nc(C(=O)O)nc2nc(N3CCCC[C@@H]3c3ccccc3)n(C[C@H]3CC[C@H](C)CC3)c12)C1CCC1` [Example 11.12, 6-{[(1R)-1-cyclobutylethyl]amino}-7-[(trans-4-methylcyclohexyl)methyl]-8-[(2R)-2-phenylpiperidin-1-yl]-7H-purine-2-carboxylic acid]: the pIC50 (Table 11) is 8.55.

As to `C[C@H]1CC[C@H](Cn2c(N3CCOC[C@H]3c3ccccc3)nc3nc(-c4noc(=O)[nH]4)nc(-c4cc(Cl)cnc4OCc4ccccc4)c32)CC1` [Example 16.161, 3-{6-[2-(benzyloxy)-5-chloropyridin-3-yl]-7-[(trans-4-methylcyclohexyl)methyl]-8-[(3R)-3-phenylmorpholin-4-yl]-7H-purin-2-yl}-1,2,4-oxadiazol-5(4H)-one], the pIC50 under setting [1] was 8.44.

`Cc1noc([C@@H]2COCCN2c2nc3nc(-c4noc(=O)[nH]4)nc(-c4cccc(Cl)c4)c3n2C[C@H]2CC[C@H](C)CC2)n1` [Example 16.116, 3-{6-(3-chlorophenyl)-7-[(trans-4-methylcyclohexyl)methyl]-8-[(3S)-3-(3-methyl-1,2,4-oxadiazol-5-yl)morpholin-4-yl]-7H-purin-2-yl}-1,2,4-oxadiazol-5(4H)-one]: the negative-log IC50 (pIC50) under setting [1] is 8.14.

As for `C[C@@H](Nc1nc(-c2n[nH]c(=O)o2)nc2nc(N3CCO[C@H]4CCCC[C@H]43)n(C[C@H]3CC[C@H](C)CC3)c12)C1CCC1` (single isomer, unassigned) [Example 11.162], the pIC50 (Table 11) was 8.13.

In the case of `CC(C)C1CCCN1c1nc2nc(-c3noc(=O)[nH]3)nc(N[C@H](C)C3CCC3)c2n1C[C@H]1CC[C@H](C)CC1` (stereo partly drawn) [Example 11.46, 3-(6-{[(1R)-1-cyclobutylethyl]amino}-7-[(trans-4-methylcyclohexyl)methyl]-8-[2-(1-methylethyl)pyrrolidin-1-yl]-7H-purin-2-yl)-1,2,4-oxadiazol-5(2H)-one], the pIC50 (Table 11) was 8.35.

Take `C[C@@H](Nc1nc(-c2noc(=O)[nH]2)nc2nc(N3CCOC[C@H]3c3ccncc3)n(C[C@H]3CC[C@H](C)CC3)c12)C1CCC1` [Example 11.145, 3-(6-{[(1R)-1-cyclobutylethyl]amino}-7-[(trans-4-methylcyclohexyl)methyl]-8-[(3R)-3-pyridin-4-ylmorpholin-4-yl]-7H-purin-2-yl)-1,2,4-oxadiazol-5(4H)-one]: for the setting “Table 11”, the pIC50 was 8.88.

As for `CC(C)c1cc(F)nc(-c2nc3nc(-c4noc(=O)[nH]4)nc(N[C@H](C)C4CCC4)c3n2C[C@H]2CC[C@H](C)CC2)c1` [Example 15.5, 3-(6-(((R)-1-cyclobutylethyl)amino)-8-(6-fluoro-4-isopropylpyridin-2-yl)-7-((trans-4-methylcyclohexyl)methyl)-7H-purin-2-yl)-1,2,4-oxadiazol-5(2H)-one], the pIC50 under setting [1] is 7.48.

Turning to `C[C@@H](Nc1nc(-c2noc(=O)[nH]2)nc2nc(N3CCCCC3Cc3ccccc3)n(Cc3ccc(C(F)(F)F)cc3)c12)C1CCC1` (stereo partly drawn) [Example 9.109, 3-{8-(2-benzylpiperidin-1-yl)-6-{[(1R)-1-cyclobutylethyl]amino}-7-[4-(trifluoromethyl)benzyl]-7H-purin-2-yl}-1,2,4-oxadiazol-5(4H)-one], for the setting “Table 9”, the pIC50 is 7.22.

In the case of `C[C@@H](Nc1nc(-c2noc(=O)[nH]2)nc2nc(C(=O)C(C)(C)C)n(C[C@H]3CC[C@H](C)CC3)c12)C1CCC1` [Example 22.1, 3-(6-{[(1R)-1-cyclobutylethyl]amino}-8-(2,2-dimethylpropanoyl)-7-[(trans-4-methylcyclohexyl)methyl]-7H-purin-2-yl)-1,2,4-oxadiazol-5(4H)-one], the pIC50 (Table 22) is 8.33.

For `CC(=O)N1CCN(c2nc3nc(-c4noc(=O)[nH]4)nc(N[C@H](C)C4CCC4)c3n2C[C@H]2CC[C@H](C)CC2)[C@H](c2ccccc2)C1` [Example 17.10, 3-{8-[(2R)-4-acetyl-2-phenylpiperazin-1-yl]-6-{[(1R)-1-cyclobutylethyl]amino}-7-[(trans-4-methylcyclohexyl)methyl]-7H-purin-2-yl}-1,2,4-oxadiazol-5(4H)-one], the negative-log IC50 (pIC50) (Table 17.2) is 9.67.

For the compound `C[C@@H](Nc1nc(-c2n[nH]c(=O)o2)nc2nc(N3CCO[C@H](C)[C@H]3c3ccccc3)n(C[C@H]3CC[C@H](C)CC3)c12)C1CCC1` [Example 11.166, 5-(6-{[(1R)-1-cyclobutylethyl]amino}-7-[(trans-4-methylcyclohexyl)methyl]-8-[(2R,3R)-2-methyl-3-phenylmorpholin-4-yl]-7H-purin-2-yl)-1,3,4-oxadiazol-2(3H)-one], the pIC50 (Table 11) is 9.10.

Turning to `C[C@@H](Nc1nc(C(=O)O)nc2nc(N3CCCC[C@H]3c3ccccc3)n(C[C@H]3CC[C@H](C)CC3)c12)C1CCC1` [Example 11.14, 6-{[(1R)-1-cyclobutylethyl]amino}-7-[(trans-4-methylcyclohexyl)methyl]-8-[(2S)-2-phenylpiperidin-1-yl]-7H-purine-2-carboxylic acid], the pIC50 (Table 11) is 9.42.

Consider `CCC1CCCN1c1nc2nc(-c3noc(=O)[nH]3)nc(N[C@H](C)C3CCC3)c2n1C[C@H]1CC[C@H](C)CC1` (stereo partly drawn) [Example 11.33, 3-(6-{[(1R)-1-cyclobutylethyl]amino}-8-(2-ethylpyrrolidin-1-yl)-7-[(trans-4-methylcyclohexyl)methyl]-7H-purin-2-yl)-1,2,4-oxadiazol-5(2H)-one], for which the pIC50 (Table 11) is 8.27.

As for `CC([C@H]1CC[C@H](C)CC1)n1c(N2CCC[C@H]2CF)nc2nc(-c3noc(=O)[nH]3)nc(-c3cncc(Cl)c3)c21` (single isomer, unassigned) [Example 18.45], the pIC50 (Table 18) is 8.62.

`C[C@@H](Nc1nc(-c2n[nH]c(=O)o2)nc2nc(C3(c4ccccc4)CCC3)n(C[C@H]3CC[C@H](C)CC3)c12)C1CCC1` [Example 20.10, 5-[6-{[(1R)-1-cyclobutylethyl]amino}-7-[(trans-4-methylcyclohexyl)methyl]-8-(1-phenylcyclobutyl)-7H-purin-2-yl]-1,3,4-oxadiazol-2(3H)-one]: the pIC50 (Table 20) was 7.54.

Regarding `CC(C)c1ccnc(-c2nc3nc(C(=O)O)nc(N[C@H](c4ccccc4)C4CCC4)c3n2Cc2ccc(C(F)(F)F)cc2)c1` [Example 7.16, 6-{[(S)-cyclobutyl(phenyl)methyl]amino}-8-[4-(1-methylethyl)pyridin-2-yl]-7-[4-(trifluoromethyl)benzyl]-7H-purine-2-carboxylic acid], the pIC50 (Table 7) was 7.39.

For the compound `C[C@@H]1OCCN(c2nc3nc(-c4n[nH]c(=O)o4)nc(N[C@H](C)C4CCC4)c3n2C[C@H]2CC[C@H](C)CC2)[C@@H]1c1ccccc1` [Example 11.164, 5-(6-{[(1R)-1-cyclobutylethyl]amino}-7-[(trans-4-methylcyclohexyl)methyl]-8-[(2S,3R)-2-methyl-3-phenylmorpholin-4-yl]-7H-purin-2-yl)-1,3,4-oxadiazol-2(3H)-one], the pIC50 (Table 11) was 7.51.

Turning to `COC(c1nc2nc(-c3noc(=O)[nH]3)nc(-c3cccc(Cl)c3)c2n1C[C@H]1CC[C@H](C)CC1)C1CCOCC1` (mixture of isomers) [Example 23.12, 3-{6-(3-chlorophenyl)-8-[methoxy(tetrahydro-2H-pyran-4-yl)methyl]-7-[(trans-4-methylcyclohexyl)methyl] -7H-purin-2-yl}-1,2,4-oxadiazol-5(4H)-one], the pIC50 (Table 23) was 7.88.

As for `C[C@@H](Nc1nc(-c2noc(=O)[nH]2)nc2nc(C3CCCCC3c3ccccc3)n(C[C@H]3CC[C@H](C)CC3)c12)C1CCC1` (single isomer, unassigned) [Example 21.25], the pIC50 (Table 21) is 7.54.

As for `C[C@@H](Nc1nc(C(=O)O)nc2nc(N3CCCC4CCCCC43)n(C[C@H]3CC[C@H](C)CC3)c12)C1CCC1` (stereo partly drawn) [Example 11.20, 6-{[(1R)-1-cyclobutylethyl]amino}-7-[(trans-4-methylcyclohexyl)methyl]-8-(octahydroquinolin-1(2H)-yl)-7H-purine-2-carboxylic acid], under “Table 11”, the pIC50 is 8.87.

Consider `C[C@@H](Nc1nc(-c2n[nH]c(=O)o2)nc2nc(N3CCO[C@H](C)[C@@H]3C)n(C[C@H]3CC[C@H](C)CC3)c12)C1CCC1` (single isomer, unassigned) [Example 11.157], for which the negative-log IC50 (pIC50) (Table 11) is 7.33.
